From patent US11872312B2, “Neuroprotective liposome compositions and methods for treatment of stroke” (The Board of Regents of The University of Texas System, priority 2012, dated 2024)

Assays:
[1] = system: murine embryonic stem cells; assay: LDH release cytotoxicity test in stem cells; details: 3 mg ELIP/30 μl gas/ml for 4 hours; H2O2 10 mM for 2 hours
Experimental: Cells were treated with Xe-reagents (3 mg ELIP/30 μl gas/ml) and control medium for 4 hours, and 2 hours before the end of cultures; 10 mM H2O2 was added.
The cell viability was determined by assessing the release of LDH.

[2] = target: tPA activity on porcine blood clot (Homo sapiens, UniProt P00750); assay: Thrombolytic efficiency of tPA on porcine blood clot in presence of Xe-ELIP or free Xe; details: 30 minute incorporation with tPA
tPA activity on porcine blood clot, sequence (P00750 36-562): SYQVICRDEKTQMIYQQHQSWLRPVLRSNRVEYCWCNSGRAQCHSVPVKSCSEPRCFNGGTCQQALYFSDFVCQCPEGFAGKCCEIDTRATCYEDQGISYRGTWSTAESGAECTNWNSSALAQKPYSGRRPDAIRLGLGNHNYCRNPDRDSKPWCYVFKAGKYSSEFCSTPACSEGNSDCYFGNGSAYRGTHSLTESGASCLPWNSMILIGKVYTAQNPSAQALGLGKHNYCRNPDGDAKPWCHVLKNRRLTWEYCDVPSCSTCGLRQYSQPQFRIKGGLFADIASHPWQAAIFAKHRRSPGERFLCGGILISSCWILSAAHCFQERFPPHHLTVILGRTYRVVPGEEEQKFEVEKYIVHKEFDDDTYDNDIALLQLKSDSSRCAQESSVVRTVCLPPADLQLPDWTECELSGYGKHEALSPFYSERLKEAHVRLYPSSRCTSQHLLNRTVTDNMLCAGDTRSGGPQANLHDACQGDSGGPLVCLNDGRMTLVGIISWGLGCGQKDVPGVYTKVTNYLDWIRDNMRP
Experimental: Neuroprotective combination therapy may minimize the harmful effects of ischemic neuronal damage. […] The thrombolytic effect of tPA was inhibited after 30 minute incorporation with free Xe (Xe saturated solution).

Compound | LDH release (cytotoxicity) [1] | thrombolytic effect of tPA [2]
OO [H2O2, Hydrogen Peroxide] | significant LDH release | 
[Xe] [free Xe] |  | inhibited
